AC50 and IC50 data for eight compounds are collected here from ChEMBL document CHEMBL1201862, “PubChem BioAssay data set” (2004).

Assay [1] is described as follows: cytotoxicity in COV362 ovarian cancer cells, dose response, cytotoxicity control for PAX8 inhibitor project, cell-based, plate reader, dry powder, SA12 (AID 743144). In kind it is functional.
The nature of assay [2]: miR-122 activators in hepatoma reporter cells, dose response, cell-based, Huh7 psiCHECK-miR122, Renilla luciferase, cherry-picked (AID 651956).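 Note: huh7 hepatoma cells stably carrying a psiCHECK-2 miR-122 sensor plasmid; renilla luciferase signal reporting endogenous miR-122 activity after 48 h compound exposure.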 Type of assay: functional.
Assay [3] can be described thus: cytotoxicity in COV434 cells, dose response, cytotoxicity control for PAX8 inhibitor project, cell-based, plate reader, dry powder, SA7 (AID 743145). In kind it is functional.
Assay [4] can be described thus: cytotoxicity dependent on PAX8, dose response, cell-based, plate reader, dry powder (AID 743049). Type of assay: functional.
The nature of assay [5]: cytotoxicity in OVCAR8 ovarian cancer cells, dose response, PAX8 project, cell-based, plate reader, dry powder samples (AID 743197). In kind it is functional. The conditions noted are these: OVCAR-8.
Assay [6] in a line: NIH:OVCAR-3 ovarian cancer cell cytotoxicity, dose response, PAX8 inhibitor project, plate reader, dry powder samples (AID 743044). In kind it is functional, cell-based.
Assay [7] concerns the target Paired box protein Pax-8 (Homo sapiens, UniProt Q06710). The experiment in a line: inhibitors of PAX8-driven TPO luciferase reporter, dose response, RMG-I cells, cherry-pick (AID 687027).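 Note: luciferase reporter driven by Pax8 target thyroperoxidase promoter measured by SteadyGlo luminescence.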 Type of assay: functional, cell-based.
The nature of assay [8]: inhibitors of PGC1a acetylation in cells, dose response, cell-based, cherry-picked samples (AID 720514).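 Note: potency may reflect raised or lowered acetylation signal.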 In kind it is functional.
Assay [9] can be described thus: cytotoxicity in OVCAR4 cells, dose response, cytotoxicity control for PAX8 inhibitor project, cell-based, plate reader, dry powder, SA11 (AID 743150). Type of assay: functional. The conditions noted are these: OVCAR-4.
The nature of assay [10]: IGROV1 ovarian cancer cell cytotoxicity, dose response, PAX8 inhibitor project, plate reader, dry powder samples (AID 743043). Type of assay: functional, cell-based. The conditions noted are these: IGROV-1.
The nature of assay [11]: IOSE-T80 ovarian epithelial cell cytotoxicity, dose response, cytotoxicity control for PAX8 inhibitor project, plate reader, dry powder samples (AID 743045). In kind it is functional, cell-based.
The nature of assay [12]: cytotoxicity in OV-90 ovarian cancer cells, dose response, PAX8 inhibitor project, cell-based, plate reader, dry powder, SA8 (AID 743149). Type of assay: functional.
Assay [13] can be described thus: A2780 ovarian cancer cell cytotoxicity, dose response, cytotoxicity control, plate reader, dry powder samples (AID 743046). Type of assay: functional, cell-based.
Assay [14] has as its target T1, High affinity choline transporter 1 (Homo sapiens, UniProt Q9GZV3).
T1 sequence (Q9GZV3 whole entry): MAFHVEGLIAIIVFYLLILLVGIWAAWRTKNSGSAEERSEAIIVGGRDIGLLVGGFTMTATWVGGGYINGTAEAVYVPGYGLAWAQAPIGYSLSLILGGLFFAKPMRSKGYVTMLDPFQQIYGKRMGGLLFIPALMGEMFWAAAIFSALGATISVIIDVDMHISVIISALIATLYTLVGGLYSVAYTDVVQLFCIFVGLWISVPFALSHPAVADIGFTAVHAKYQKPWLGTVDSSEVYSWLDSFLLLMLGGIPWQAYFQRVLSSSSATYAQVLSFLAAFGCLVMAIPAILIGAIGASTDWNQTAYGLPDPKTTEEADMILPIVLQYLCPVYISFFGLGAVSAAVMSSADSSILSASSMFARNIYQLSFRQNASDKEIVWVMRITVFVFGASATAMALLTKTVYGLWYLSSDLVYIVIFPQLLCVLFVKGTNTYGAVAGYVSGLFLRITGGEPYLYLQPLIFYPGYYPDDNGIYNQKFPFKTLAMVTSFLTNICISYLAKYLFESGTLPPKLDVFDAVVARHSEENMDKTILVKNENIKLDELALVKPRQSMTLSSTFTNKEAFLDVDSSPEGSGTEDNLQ
The experiment in a line: CHT choline uptake inhibitors, dose response, cell-based, HEK-293 hCHT, [3H]-choline uptake (AID 652177). In kind it is functional.

A short description of assay [15]: Late stage assay provider results from the probe development effort to identify inhibitors of the Plasmodium falciparum M17 Leucine Aminopeptidase (M17LAP): radiolabel-based cell-based dose response assay to identify compounds that inhibit P. falciparum growth in RBCs Set 2. Type of assay: functional.
A short description of assay [16]: A Cell-Based Confirmatory Screen for Compounds that Inhibit VEEV, TC-83 (7). In kind it is functional.
Assay [17] in a line: MITF: Counter assay: A375 proliferation Measured in Cell-Based System Using Plate Reader - 2084-03_Inhibitor_Dose_DryPowder_Activity_Set8. Type of assay: functional. The following applies: A-375.
A short description of assay [18]: MITF Orthogonal Assay: SK-MEL-5 CTG Assay Measured in Cell-Based System Using Plate Reader - 2084-02_Inhibitor_Dose_DryPowder_Activity_Set7. In kind it is functional.
A short description of assay [19]: TRPM1 promoter luciferase reporter signal decrease, dose response, MITF inhibitor project, cell-based, SK-MEL-5, dry powder, set 8 (AID 624430). In kind it is functional.
The nature of assay [20]: Late stage assay provider results from the probe development effort to identify inhibitors of the Plasmodium falciparum M18 Aspartyl Aminopeptidase (M18AAP): radiolabel-based cell-based dose response assay to identify compounds that inhibit P. falciparum growth in RBCs, Set 2.. Type of assay: functional.
A short description of assay [21]: YAP1 pathway inhibition via CTGF transcript levels, dose response, cell-based, DLD1 colon cancer, RT-qPCR, cherry-pick (AID 1053122). In kind it is functional. The conditions noted are these: Cancer cell lines.

The source made the active and inactive calls.

Paired box protein Pax-8, sequence (Q06710 whole entry): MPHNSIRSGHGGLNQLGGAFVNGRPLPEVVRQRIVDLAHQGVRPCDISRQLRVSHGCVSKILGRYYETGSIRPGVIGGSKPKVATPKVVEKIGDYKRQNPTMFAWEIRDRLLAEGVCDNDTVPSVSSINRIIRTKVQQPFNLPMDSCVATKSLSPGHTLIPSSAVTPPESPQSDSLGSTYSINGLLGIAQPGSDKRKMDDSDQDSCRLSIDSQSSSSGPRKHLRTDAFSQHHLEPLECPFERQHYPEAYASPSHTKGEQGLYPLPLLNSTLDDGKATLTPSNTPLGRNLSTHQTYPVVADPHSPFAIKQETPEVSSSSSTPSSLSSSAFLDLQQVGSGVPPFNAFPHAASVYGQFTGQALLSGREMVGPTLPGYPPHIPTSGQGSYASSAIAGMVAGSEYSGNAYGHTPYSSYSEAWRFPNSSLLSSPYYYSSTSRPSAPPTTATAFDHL

As for `CN(C[C@H]1N[C@@H](CO)[C@@H]1c1ccc(C2=CCCC2)cc1)C(=O)c1ccc(F)cc1`, the AC50 in assay [1] was 3.27 µM (active); in assay [2], 13 µM (active); in assay [3] it was 5.17 µM (active); in assay [4], 2.21 µM (active); in [5], 4.04 µM (active); in assay [6], 5.63 µM (active). In addition, the AC50 was 0.895 µM (active) in assay [7]; 0.25 µM (active) in [8]; 1.57 µM (active) in assay [9]; 4.15 µM (active) in [10]; 3.25 µM (active) in assay [11]; 9.17 µM (active) in [12].

For `C[C@@H]1CCCCO[C@@H](CN(C)Cc2ccc(Cl)c(Cl)c2)[C@H](C)CN([C@@H](C)CO)C(=O)c2cc(NC(=O)Nc3ccccc3)ccc2O1`, the values for the half-maximal activity concentration (AC50) in assay [13] and in [7] were 3.09 µM (active) and 11.6 µM (active), respectively.

Consider `COc1ccc(C(=O)NCc2cc(C(C)C)no2)cc1OCCN1CCCCC1`, for which the IC50 in assay [14] was 0.76 µM (active).

As to `CCCOc1ccc(CC(=O)NO)cc1`, the concentration for half-maximal inhibition (IC50) in assay [15] is 8.6 µM (active).

With `CN(c1ccc(OCc2ccccc2)cc1)c1nc(=O)c2cccnc2s1`, the IC50 in assay [16] was 2.33 µM (active).

In the case of `CCN1CCN(C2=C(Nc3ccc(Cl)c(Cl)c3)C(=O)c3ccccc3C2=O)CC1`, the AC50 is 21.1 µM (active) in assay [17], 9.55 µM (active) in [18] and 10.8 µM (active) in assay [19].

In the case of `COc1ccc(CCCNc2c3ccccc3nc3ccccc23)cc1OC`, the IC50 in assay [20] was 2.2 µM (active).

As to `C[C@H]1CN([C@@H](C)CO)C(=O)c2cccc(NC(=O)c3nc4ccccc4s3)c2O[C@@H]1CN(C)C(=O)Nc1ccc2c(c1)OCO2`, the concentration at half-maximal activity (AC50) in assay [21] is 1.82 µM (active).
